Experimental findings from patent publication US20220227773A1, “FUSED RING COMPOUND, PREPARATION METHOD THEREFOR AND USE THEREOF” (SHANGHAI INSTITUTE OF MATERIA MEDICA, CHINESE ACADEMY OF …, priority 2019, published 2022) are described below.

Structures can show the parent of a compound that is named as a salt. Where two headings read alike, the source gives them in different places.

The subject of experiment [1] is mice. Nature of the experiment: Forced swimming test (FST) in mice. Type of experiment: in vivo. As to conditions: Mus musculus. As to the method: 3. In Vivo Drug Efficacy Test (Mouse Forced Swimming Model)
Experimental animals: C57BL/6 mice (Shanghai Xipuer-Bikai Experimental Animal Co., Ltd.), male, 6 weeks old, weighing 15-20 g. ICR mice (Shanghai Xipuer-Bikai Experimental Animal Co., Ltd.), male, 6 weeks old, weighing 20-25 g. All the ordered mice were fed in a standard environment for 2-3 weeks before test.
Forced Swimming Test (FST): in the forced swimming apparatus, the water level is 45 cm, and the water temperature is 25° C. Before the experiment, the mice were placed in the experimental room for 1 h for adapting to the environment. At the beginning of the experiment, the mice were placed in the apparatus for 6min, and the whole process was recorded with a camera. When analyzing the data, only the immobility time of the mice in the last 4 min was counted, and the result was expressed by mean±SD.
The results were analyzed by one-way analysis of variance. […] FST: Forced swimming test; TST: Tail suspension test.

Experiment [2] concerns the target T1, hSERT (5-HTT) in HEK293-hSERT cells (Homo sapiens, UniProt P31645).
T1 construct: expressed in transfected cells; host or cells: HEK293
In words: 5-HTT reuptake activity assay (fluorescence neurotransmitter transporter uptake kit). Type of experiment: cell-based. As to conditions: serotonin reuptake inhibition.

The target of experiment [3] is T2, human recombinant 5-HT3 receptor (Homo sapiens, UniProt P46098).
T2 construct: expressed in transfected cells; host or cells: HEK293 (membrane preparation)
T2 sequence (P46098 24-478): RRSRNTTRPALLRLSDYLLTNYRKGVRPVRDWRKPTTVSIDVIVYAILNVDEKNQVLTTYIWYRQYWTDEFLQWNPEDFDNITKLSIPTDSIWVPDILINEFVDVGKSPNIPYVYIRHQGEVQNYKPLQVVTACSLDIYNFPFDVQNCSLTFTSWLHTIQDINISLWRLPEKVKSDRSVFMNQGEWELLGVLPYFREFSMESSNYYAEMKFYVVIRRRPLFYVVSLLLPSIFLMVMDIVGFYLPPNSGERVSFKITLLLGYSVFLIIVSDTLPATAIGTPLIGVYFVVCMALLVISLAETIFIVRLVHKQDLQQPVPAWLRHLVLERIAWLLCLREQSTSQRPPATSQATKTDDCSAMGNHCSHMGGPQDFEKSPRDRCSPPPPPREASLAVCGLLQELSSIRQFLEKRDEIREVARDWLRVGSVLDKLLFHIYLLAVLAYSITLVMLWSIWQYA
Nature of the experiment: 5-HT3 receptor affinity assay (3H-BRL 43694 radioligand binding). As to conditions: read-out: inhibition (%) at 1 μM.

Setting [4] is: po, FST, dose significantly reducing immobility time of mice, read-out: Effective dose.
Where [5] appears, read: ip, read-out: Effective dose (mg/kg).

T1 sequence (P31645 whole entry): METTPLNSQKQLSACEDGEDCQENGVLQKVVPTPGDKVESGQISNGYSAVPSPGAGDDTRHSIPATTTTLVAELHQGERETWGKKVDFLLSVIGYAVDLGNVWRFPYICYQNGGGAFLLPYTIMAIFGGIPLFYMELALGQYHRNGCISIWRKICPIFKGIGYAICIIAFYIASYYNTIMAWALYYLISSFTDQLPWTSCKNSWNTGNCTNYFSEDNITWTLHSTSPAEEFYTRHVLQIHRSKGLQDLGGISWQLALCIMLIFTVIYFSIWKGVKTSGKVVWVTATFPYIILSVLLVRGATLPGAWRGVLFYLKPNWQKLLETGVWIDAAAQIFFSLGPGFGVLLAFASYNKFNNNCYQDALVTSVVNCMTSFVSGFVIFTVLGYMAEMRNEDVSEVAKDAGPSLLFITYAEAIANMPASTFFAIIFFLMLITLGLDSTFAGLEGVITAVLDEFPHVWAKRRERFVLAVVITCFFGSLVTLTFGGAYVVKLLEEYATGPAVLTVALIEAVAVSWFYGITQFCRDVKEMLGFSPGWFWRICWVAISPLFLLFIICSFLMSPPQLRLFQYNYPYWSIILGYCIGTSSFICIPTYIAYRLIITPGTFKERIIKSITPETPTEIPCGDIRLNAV

On to `CN(C)CCCC1(c2ccc(F)cc2)OCc2cc(C#N)ccc21` (stereo not shown) [Citalopram, reference compound], for which, in experiment [1] (setting [4]), the minimal effective dose is 20 mg/kg.

As for `CNCC[C@H](Oc1cccc2ccccc12)c1cccs1` [Duloxetine, reference compound], the minimal effective dose in experiment [1] (po, read-out: Effective dose (mg/kg)) came out at 20 mg/kg. The compound `c1ccc2cc(N3CC4CCNCCC4C3)ccc2c1` (stereo not shown) [Example 6, 2-(naphthalen-2-yl)decahydropyrrolo[3,4-d]azepine maleate] returned an IC50 in experiment [2] below 200 nM. Still for that read-out and setting: with `c1ccc2c(C3CC4CNCC4C3)cccc2c1` (stereo not shown) [Example 8, 5-(naphthalen-1-yl)octahydrocyclopenta[c]pyrrole hydrochloride] the figure was below 200 nM; with `Clc1ccc(C2=CC3CNCC3C2)cc1Cl` (stereo not shown) [Example 9, 5-(3,4-chlorophenyl)-1,2,3,3a,4,6a-hexahydrocyclopenta[c]pyrrole hydrochloride], below 200 nM. Take `O=C(O)/C=C\C(=O)O.c1cc2ccc(N3CC4CNCC4C3)cc2s1` (stereo not shown) [Example 19, 2-(Benzo[b]thiophen-6-yl)octahydropyrrolo[3,4-c]pyrrole maleate]: the half-inhibitory concentration (IC50) in experiment [2] was below 10 nM. The minimal effective dose in experiment [1] (setting [5]) worked out at 10 mg/kg. Taken in the same sequence, the figures for `O=C(O)/C=C\C(=O)O.c1cc2cc(N3CC4CNCC4C3)ccc2o1` (stereo not shown) [Example 21, 2-(Benzofuran-5-yl)octahydropyrrolo[3,4-c]pyrrole maleate] were below 50 nM and 3 mg/kg. As for `c1ccc2c(N3CC4CNCC4C3)csc2c1` (stereo not shown) [Example 23, 2-(Benzo[b]thiophen-3-yl)octahydropyrrolo[3,4-c]pyrrole maleate], the IC50 in experiment [2] was below 200 nM. Consider `CN1CC2CN(c3cccc4ccccc34)CC2C1` (stereo not shown) [Example 26, 2-methyl-5-(naphthalen-1-yl)octahydropyrrolo[3,4-c]pyrrole oxalate], for which, in experiment [2], the IC50 was below 200 nM. Also, the inhibition at 1 µM in experiment [3] (1 μM compound, 0.5 nM 3H-BRL 43694, HEK293 membranes) was determined as 76%.

Compound `Clc1cccc(N2CC3CNCC3C2)c1Cl` (stereo not shown) [Example 27, 2-(2,3-dichlorophenyl)octahydropyrrolo[3,4-c]pyrrole maleate] registered an IC50 in experiment [2] below 50 nM. Besides, the inhibition at 1 µM in experiment [3] was 104%. In experiment [2], `Fc1ccc2cc(N3CC4CNCC4C3)ccc2c1.O=C(O)/C=C\C(=O)O` (stereo not shown) [Example 29, 2-(6-fluoronaphthalen-2-yl)octahydropyrrolo[3,4-c]pyrrole maleate] returned an IC50 below 10 nM. The minimal effective dose in experiment [1] (setting [4]) turned out to be 5 mg/kg. `CN1CC2CN(c3ccc4cc(F)ccc4c3)CC2C1.O=C(O)/C=C\C(=O)O` (stereo not shown) [Example 30, 2-(6-fluoronaphthalen-2-yl)-5-methyloctahydropyrrolo[3,4-c]pyrrole maleate]: in experiment [2], the IC50 is below 10 nM. Also, in experiment [1] (setting [4]), the minimal effective dose was 20 mg/kg. For the compound `Clc1ccc(N2CC3CCNCCC3C2)cc1Cl` (stereo not shown) [Example 42, 2-(3,4-dichlorophenyl)decahydropyrrolo[3,4-d]azepine maleate], in experiment [2], the IC50 is below 10 nM. Further, the inhibition at 1 µM in experiment [3] amounted to 103%. In experiment [2], `c1cc(N2CC3CCNCCC3C2)c2sccc2c1` (stereo not shown) [Example 43, 2-(Benzo[b]thiophen-7-yl)decahydropyrrolo[3,4-d]azepine maleate] returned a 50% inhibitory concentration (IC50) below 50 nM.

`C1=C(c2cccc3ccsc23)CC2CNCC12` (stereo not shown) [Example 48, 5-(Benzothiophen-7-yl)-1,2,3,3a,4,6a-hexahydrocyclopenta[c]pyrrole hydrochloride] had an IC50 in experiment [2] below 50 nM. Still for that read-out and setting: with `C1=C(c2cc3ccccc3s2)CC2CNCC12` (stereo not shown) [Example 51, 5-(Benzothiophen-2-yl)-1,2,3,3a,4,6a-hexahydrocyclopenta[c]pyrrole hydrochloride] the figure was below 50 nM; with `C1=C(c2cc3ccccc3o2)CC2CNCC12` (stereo not shown) [Example 52, 5-(Benzofuran-2-yl)-1,2,3,3a,4,6a-hexahydrocyclopenta[c]pyrrole hydrochloride], below 200 nM; with `C1=C(c2ccc3ccccc3c2)CC2CNCC12` (stereo not shown) [Example 54, 5-(naphthalen-2-yl)-1,2,3,3a,4,6a-hexahydrocyclopenta[c]pyrrole hydrochloride], below 50 nM. Take `C1=C(c2cccc3ccccc23)CC2CNCC12` (stereo not shown) [Example 56, 5-(naphthalen-1-yl)-1,2,3,3a,4,6a-hexahydrocyclopenta[c]pyrrole dihydrochloride]: the IC50 in experiment [2] is below 50 nM. On the same count and under the same terms, with `CN1CC2C=C(c3ccc4ccccc4c3)CC2C1` (stereo not shown) [Example 57, 2-methyl-5-(naphthalen-2-yl)-1,2,3,3a,4,6a-hexahydrocyclopenta[c]pyrrole] the figure was below 50 nM; with `CN1CC2C=C(c3cc4ccccc4o3)CC2C1` (stereo not shown) [Example 59, 5-(Benzofuran-2-yl)-2-methyl-1,2,3,3a,4,6a-hexahydrocyclopenta[c]pyrrole hydrochloride], below 50 nM; with `CN1CC2C=C(c3cc4ccccc4s3)CC2C1` (stereo not shown) [Example 61, 5-(Benzothiophen-2-yl)-2-methyl-1,2,3,3a,4,6a-hexahydrocyclopenta[c]pyrrole hydrochloride], below 50 nM. Consider `CN1CC2CC(c3cc4ccccc4s3)CC2C1` (stereo not shown) [Example 62, 5-(benzothiophen-2-yl)-2-methyl-octahydrocyclopenta[c]pyrrole hydrochloride], for which the IC50 in experiment [2] is below 50 nM. In the case of `c1cc2cc(N3CCC4CNCC43)ccc2s1` (stereo not shown) [Example 64, 1-(Benzothiophen-5-yl)octahydropyrrolo[3,4-b]pyrrole maleate], in experiment [2], the IC50 is below 50 nM. Same read-out and setting: with `CN1CC2CCN(c3ccc4sccc4c3)C2C1` (stereo not shown) [Example 65, 1-(Benzothiophen-5-yl)-5-methyloctahydropyrrolo[3,4-b]pyrrole oxalate] the figure was below 50 nM; with `Cc1cccc(N2CC3CNCC3C2)c1C` (stereo not shown) [Example 66, 2-(2,3-dimethylphenyl)octahydropyrrolo[3,4-c]pyrrole maleate], below 50 nM. Same read-out and setting: with `Cc1cccc(N2CC3CN(C)CC3C2)c1C` (stereo not shown) [Example 67, 2-(2,3-dimethylphenyl)-5-methyloctahydropyrrolo[3,4-c]pyrrole oxalate] the figure was below 200 nM.

In the case of `Fc1cc(N2CC3CNCC3C2)cc2sccc12` (stereo not shown) [Example 68, 2-(4-fluorobenzo[b]thiophen-6-yl)octahydropyrrolo[3,4-c]pyrrole dihydrochloride], the concentration for half-maximal inhibition (IC50) in experiment [2] is below 200 nM.

`Fc1cc(N2CC3CNCC3C2)c2ccsc2c1` (stereo not shown) [Example 69, 2-(6-fluorobenzothiophen-4-yl)octahydropyrrolo[3,4-c]pyrrole dihydrochloride] gave an IC50 in experiment [2] below 200 nM. In experiment [1] (setting [5]), the minimal effective dose is 10 mg/kg. In experiment [2], `CN1CC2CN(c3cc(F)cc4sccc34)CC2C1` (stereo not shown) [Example 70, 2-(6-fluorobenzothiophen-4-yl)-5-methyloctahydropyrrolo[3,4-c]pyrrole oxalate] had a half-inhibitory concentration (IC50) below 50 nM. Still for that read-out and setting: in the case of `CN1CC2C=C(c3cccc4ccccc34)CC2C1` (stereo not shown) [Example 71, 2-methyl-5-(naphthalen-1-yl)-1,2,3,3a,4,6a-hexahydrocyclopenta[c]pyrrole] it was below 50 nM. In experiment [2], `CN1CC2CN(c3c(F)cc4ccccc4c3F)CC2C1` (stereo not shown) [Example 75, 2-(1,3-difluoronaphthalen-2-yl)-5-methyloctahydropyrrolo[3,4-c]pyrrole dihydrochloride] had an IC50 below 100 nM. The same measure, in the same setting: in the case of `CN1CC2CN(c3cc4ccccc4cc3F)CC2C1` (stereo not shown) [Example 76, 2-(3-fluoronaphthalen-2-yl)-5-methyloctahydropyrrolo [3,4-c]pyrrole dihydrochloride] it was below 50 nM.

In experiment [2], `CN1CC2CN(c3ccc(C(F)(F)F)cc3)CC2C1.O=C(O)C(=O)O` (stereo not shown) [Example 81, 2-methyl-5-(4-(trifluoromethyl)phenyl)octahydropyrrolo[3,4-c]pyrrole oxalate] displayed an IC50 below 50 nM. Further, in experiment [1] (setting [5]), the minimal effective dose was determined as 10 mg/kg. With `Clc1ccc(N2CCC3CNCC3CC2)c(Cl)c1` (stereo not shown) [Example 90, 6-(2,4-dichlorophenyl)decahydropyrrolo[3,4-d]azepine hydrochloride], the IC50 in experiment [2] is below 50 nM. On the same count and under the same terms, in the case of `CN1CC2CN(c3cccc4c3CCC(=O)N4)CC2C1` (stereo not shown) [Example 93, 5-(5-methylhexahydropyrrolo[3,4-c]pyrrol-2(1H)-yl)-3,4-dihydroquinolin-2(1H)-one dihydrochloride] it was below 200 nM.

For the compound `CN1[C@@H]2CC[C@H]1C[C@@H](OC(=O)c1cc(Cl)cc(Cl)c1)C2` [MDL72222, reference compound], the inhibition at 1 µM in experiment [3] was 93%.

Broadly, the IC50 is the midpoint of a concentration-inhibition curve. Usually inhibition stands for the relative decrease from the control value, in per cent.
